These results are taken from patent publication US20220362299A1, “ENGINEERED NATURAL KILLER CELLS AND METHODS FOR USING THE SAME IN IMMUNOTHERAPY AND AUTOPHAGY INHIBITON TECHNIQUES” (Purdue Research Foundation, priority 2019, published 2022).

Holding throughout (type): cell-based, human
Test [1] has as its system GBM43 cells. Description: Chemokine mRNA in GBM43 cells by RT-PCR. As to conditions: vs control. The method, then:
Total RNAs were extracted using the mirVana™ miRNA Isolation Kit and the concentrations determined with a Qubit 4 Fluorometer. The RNA (80 ng) from each sample was reverse-transcribed using the qScript™ One-Step SYBR® Green qRT-PCR kit in a ViiA-7 RT-PCR system (Thermo Fisher Scientific, Waltham, Mass.). The GAPDH gene was used as the endogenous control. The comparative Ct values of genes of interest were normalized to the Ct value of GAPDH. The 2^−Δct method was used to determine the relative expression of the genes, while the 2^−ΔΔct method was used to calculate fold changes of gene expression over control.

In the next test the test system is CD73. Description: CD73 activity of GBM43 cells (AMP hydrolysis, malachite green phosphate assay). The following applies: various concentrations of CQ, 24 h. The method, then:
To test for CD73 activity and its ability to generate adenosine, GBM43 cells were seeded at 2×10^4 cells per well in a 96-well plate in complete DMEM. After overnight incubation, GBM43 cells were incubated with anti-CD73 scFv following uPA (100 nM)-mediated cleavage from either CD73.mCAR-NK92 or CD73.mCAR-pNK cells during incubation for 6 hours. Then, the cell medium was removed and cells were rinsed three times with phosphate-free buffer (117 mM NaCl, 5.3 mM KCl, 1.8 mM MgCl2, 26 mM NaHCO3, 10 mM glucose, pH 7.4, diluted in ddH2O). AMP (250 μM final), diluted in phosphate-free buffer, was added and incubated for 10 min at 37° C. Finally, the phosphate (Pi) concentrations resulting from AMP hydrolysis were measured using a malachite green phosphate assay kit following the manufacturer's instructions.

Test [2] deals with GBM43 cells. Description: ELISA of CCL5 and CXCL10 in supernatant of GBM43 cells. As to conditions: CQ 50 μM, 24 h. The text has this:
To evaluate changes in the protein levels of these chemokines and gain more insight into the underlying molecular mechanisms, chemokine concentrations were quantified in the conditioned media of CQ-treated GBM43 cells using ELISA in absence and presence of various pharmacological inhibitors driving signaling pathways for these chemokines. This included the PI3K inhibitor LY294002, NF-κB inhibitor BAY11-7082 and JNK inhibitor SP600125.
More specifically, to measure secreted CCL5 and CXCL10, GBM43 cells were treated with CQ at a final concentration of 50 μM in presence or absence of various small molecule inhibitors, including LY294002, BAY11-7082 and SP600125 for 24 hours. Supernatants were collected and the levels of CCL5 and CXCL10 were quantified using Human CCL5 and CXCL10 Biolegend-ELISA MAX™ Deluxe Sets according to the manufacturer's directions. To look at the levels of multiple chemokines secretion from GBM43 cells, the cell culture supernatants were also collected and all the selected targets were determined with the chemokine array provided by Eve Technologies (Calgary, Canada).
Background: In an ELISA, binding on a coated surface is turned into a signal by an enzyme label.

Turning to Chloroquine diphosphate salt [CQ], in the test on GBM43 cells [1] (CQ-treated), the “CCL5 mRNA in GBM43 cells” value is “substantial upregulation” and the “CXCL10 mRNA in GBM43 cells” value is “substantial upregulation”. Also, in the test with GBM43 cells [1] (inhibition of autophagy), the “CCL2 mRNA in GBM43 cells” value was “decreased transcriptional levels” and the “CXCL12 mRNA in GBM43 cells” value is given as “decreased transcriptional levels”. For the same substance, the “production of adenosine in GBM cells mediated by CD73” value in the test with CD73 is “significantly reduced”. Also, in the test on GBM43 cells [2], the “secreted CCL5 vs untreated control cells” value was “significantly higher amounts” and the “secreted CXCL10 vs untreated control cells” value is reported as “significantly higher amounts”.
